{6-FAM} = 6-carboxyfluorescein dye; {BHQ-1} = Black Hole Quencher-1
Experiments:
[1] = X-ray radiation cleavage of 6-FAM labelled DNA, fluorescence spectroscopy, with DMSO as hydroxyl radical scavenger; format: physicochemical; details: 100 Gy
Protocol: X-ray radiation studies were performed, using DMSO as a hydroxyl radical scavenger at concentrations from 0-100 mM. In a 24-well plate, 400 μL of purified 6-FAM-DNA-AuNPs were mixed with 400 μL of 2×DMSO solution, or PBS and the samples were irradiated with X-rays. After radiation, the AuNPs were removed from solution by centrifugation (13,000 rpm, 15 min) and supernatant fluorescence was measured (Excitation at 490 nm and Emission at 514 nm). Non-radiated controls were identically prepared and measured.
6-FAM has a high fluorescence yield (>80%) and high quenching when attached to AuNPs. The cleavage via X-ray irradiation was studied with optical fluorescence spectroscopy.
Black Hole Quencher®-1 DNA, coupled to 6-FAM, was purchased from IDT (6-FAM-5′-[…]-3′-BHQ-1®). It was irradiated with DMSO at concentrations from 0-100 mM in 24 well plates, and the fluorescence from cleaved DNA was measured. […] X-ray radiated and cleaved 6-FAM molecules were incubated with MCF-7 cells for 4 hours.

MCF-7 cells = test: Clonogenic assay with X-ray irradiation; format: cell-based
Protocol: MCF-7 cells were plated at a rate of 50,000 cells/ml in a 24-well cell culture plate. They were then incubated with DOX, DOX-DNA, and DOX-DNA-AuNPs for 12 hours, and then irritated with 0, 2, 5, and 10 Gy X-rays. The cells were then counted, using a hemocytometer, and replated in a 6 well plate at 1000 cell per well for the 0 and 2 Gy dose; 3000 cells for the 5 Gy; and 9000 for the 10 Gy. The plates were incubated for 14 days, and then fixed with gluteraldhyde and stained with crystal violet. The colonies with 50 or more cells were then counted.

Row | Molecule | Effect of DMSO (hydroxyl radical scavenger) on cleavage / fluorescence ([1]; DMSO up to 100 mM) | Cleavage after X-ray radiation ([1]; zero DMSO) [%] | Cleavage (fluorescence) after X-ray radiation in the presence of AuNPs ([1]; zero DMSO, mixture with AuNPs, no covalent conjugation) [%] | Measured cell survivability (MCF-7 cells; 0 Gy) | Measured cell survivability (MCF-7 cells; 2 Gy) | Measured cell survivability (MCF-7 cells; 5 Gy) | Measured cell survivability (MCF-7 cells; 10 Gy) | Survivability of MCF-7 cells (MCF-7 cells; DOX alone, no radiation) [%] | Toxicity to MCF-7 cells (MCF-7 cells; DOX alone, no radiation, 24 million free DOX in the cell)
1 | 6-FAM-5′-TTAGGGTTAGGG-3′-BHQ-1® (DNA, 5' {6-FAM}, 3' {BHQ-1}, backbone not given here) [Q-DNA-6-FAM, Black Hole Quencher-1 DNA coupled to 6-FAM, purchased from IDT] | significantly reduced the fluorescence | 25 | 4 | – | – | – | – | – | –
2 | COc1cccc2c1C(=O)c1c(O)c3c(c(O)c1C2=O)C[C@@](O)(C(=O)CO)C[C@@H]3O[C@H]1C[C@H](N)[C@H](O)[C@H](C)O1 [DOX, doxorubicin] | – | – | – | 0.81 ± .01 | 0.61 ± .05 | 0.28 ± .02 | 0.07 ± .002 | 80 | about 20%
